26 compounds from patent US6987114B1, “Antiviral pyrimidinedione derivatives and process for the preparation thereof” (Samjin Pharmaceutical Co., Ltd, priority 1999, dated 2006) can be followed below.

The structures appear in SMILES notation. ≈ marks a conversion by molar mass, not a printed value. Read-outs that look alike come from different tables or passages of the source. Some results are limits rather than exact numbers.

The term melting point denotes the temperature, or range, at which the solid turns liquid.

In one data set the test system is mock-infected MT-4 cells. Kind of data set: Cytotoxicity based on viability of mock-infected host cells (MTT method). It counts as cell-based. Conditions: mock-infected MT-4 cells, MTT method, 4 or 5 days at 37° C. The gist of the method:
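Mock-infected MT-4 cells at 2.5×10^5 cells/ml were exposed to various concentrations of test compound, run in parallel with HIV-infected (1000 CCID50) cultures. After 4 or 5 days at 37° C., host-cell viability was read by MTT.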
(In general: Formazan colour is commonly taken as a measure of viable cells.)

The subject of another data set is HIV. Kind of data set: microbe, parasite or virus in culture. Format: cell-based. The gist of the method:
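MT-4 cells (2.5×10^5 cells/ml) infected with 1000 CCID50 HIV, added at once to compound dilutions, incubated 4 or 5 days at 37° C. Protection from virus-induced cytopathic effect read by MTT; cytotoxicity from MTT viability of mock-infected cells in parallel.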

The mark [1] stands for this setting: Human immunodeficiency virus 1, MT4, HIV-infected MT-4 cells, MTT method, 4 or 5 days at 37° C., read-out: ED50 (the source's name).
[2] abbreviates: Human immunodeficiency virus 1, MT4, read-out: ED50.

For the compound `Cc1cc(C)cc(Sc2c(C(C)C)c(=O)[nH]c(=O)n2Cc2cc(C(F)(F)F)cc(C(F)(F)F)c2)c1` [Example 62, 1-[3,5-Bis(trifluoromethyl)benzyl]-5-isopropyl-6-(3,5-dimethylphenyl)thio-2,4-pyrimidinedione], the melting point fell in the range of 183 to 185 °C. For the same compound, the CD50 in the data set with mock-infected MT-4 cells was above 100.00 µg/mL. In addition, the EC50 in the data set with HIV (setting [1]) is above 100 µg/mL.
For `CCc1c(Oc2cc(C)cc(C)c2)n(Cc2cc(C(F)(F)F)cc(C(F)(F)F)c2)c(=O)[nH]c1=O` [Example 63, 1-[3,5-Bis(Trifluoromethyl)benzyl]-5-ethyl-6-(3,5-dimethyl-phenoxy)-2,4-pyrimidinedione] the same measures were 183 to 185 °C, above 100.00 µg/mL and above 100 µg/mL.
As to `Cc1cc(C)cc(Oc2c(C(C)C)c(=O)[nH]c(=O)n2Cc2cc(C(F)(F)F)cc(C(F)(F)F)c2)c1` [Example 64, 1-[3,5-Bis(Trifluoromethyl)benzyl]-5-isopropyl-6-(3,5-dimethylphenoxy)-2,4-pyrimidinedione], the melting point was in the range of 182 to 183 °C. This compound also showed a CD50 in the data set with mock-infected MT-4 cells above 100.00 µg/mL. The EC50 in the data set with HIV (setting [1]) was above 100 µg/mL.
The matching figures for `CCc1c(C(=O)c2cc(C)cc(C)c2)n(Cc2cc(C(F)(F)F)cc(C(F)(F)F)c2)c(=O)[nH]c1=O` [Example 65, 1-[3,5-Bis(Trifluoromethyl)benzyl]-5-ethyl-6-(3,5-dimethyl-benzoyl)-2,4-pyrimidinedione]: 241 to 243 °C, above 100.00 µg/mL and above 100 µg/mL.
For `Cc1cc(C)cc(C(=O)c2c(C(C)C)c(=O)[nH]c(=O)n2Cc2cc(C(F)(F)F)cc(C(F)(F)F)c2)c1` [Example 66, 1-[3,5-Bis(Trifluoromethyl)benzyl]-5-isopropyl-6-(3,5-dimethyl-benzoyl)-2,4-pyrimidinedione] the same measures were 178 to 180 °C, 8.14 µg/mL and 1.75 µg/mL (≈ 3.41 µM).
The matching figures for `CCc1c(Sc2cc(C)cc(C)c2)n(Cc2cc(F)ccc2F)c(=O)[nH]c1=O` [Example 67, 1-(2,5-Difluorobenzyl)-5-ethyl-6-(3,5-dimethylphenyl)thio-2,4-pyrimidinedione]: 214 to 216 °C, 12.40 µg/mL and 0.008 µg/mL (≈ 0.0199 µM).
`Cc1cc(C)cc(Sc2c(C(C)C)c(=O)[nH]c(=O)n2Cc2cc(F)ccc2F)c1` [Example 68, 1-(2,5-Difluorobenzyl)-5-isopropyl-6-(3,5-dimethylphenyl)thio-2,4-pyrimidinedione] displayed a melting point of 192 to 194 °C. Also, in the data set on mock-infected MT-4 cells, the CD50 amounted to 4.15 µg/mL. The EC50 in the data set on HIV (setting [1]) came to 0.005 µg/mL (≈ 0.012 µM).
The matching figures for `CCc1c(Oc2cc(C)cc(C)c2)n(Cc2cc(F)ccc2F)c(=O)[nH]c1=O` [Example 69, 1-(2,5-Difluorobenzyl)-5-ethyl-6-(3,5-dimethylphenoxy)-2,4-pyrimidinedione]: 231 to 233 °C, above 100.00 µg/mL and 0.034 µg/mL (≈ 0.088 µM).
For `Cc1cc(C)cc(Oc2c(C(C)C)c(=O)[nH]c(=O)n2Cc2cc(F)ccc2F)c1` [Example 70, 1-(2,5-Difluorobenzyl)-5-isopropyl-6-(3,5-dimethylphenoxy)-2,4-pyrimidinedione] the same measures were 214 to 216 °C, above 100.00 µg/mL and 0.014 µg/mL (≈ 0.035 µM).
`CCc1c(C(=O)c2cc(C)cc(C)c2)n(Cc2cc(F)ccc2F)c(=O)[nH]c1=O` [Example 71, 1-(2,5-Difluorobenzyl)-5-ethyl-6-(3,5-dimethylbenzoyl)-2,4-pyrimidinedione] registered a melting point of 135 to 137 °C. This compound also registered a CD50 with mock-infected MT-4 cells above 100.00 µg/mL. Also, the EC50 in the data set with HIV (setting [1]) is 0.004 µg/mL (≈ 0.01 µM).
For `Cc1cc(C)cc(C(=O)c2c(C(C)C)c(=O)[nH]c(=O)n2Cc2cc(F)ccc2F)c1` [Example 72, 1-(2,5-Difluorobenzyl)-5-isopropyl-6-(3,5-dimethylbenzoyl)-2,4-pyrimidinedione] the same measures were 205 to 207 °C, 5.26 µg/mL and 0.003 µg/mL (≈ 0.00727 µM).
For `CCc1c(Sc2cc(C)cc(C)c2)n(Cc2cc(F)cc(F)c2)c(=O)[nH]c1=O` [Example 73, 1-(3,5-Difluorobenzyl)-5-ethyl-6-(3,5-dimethylphenyl)thio-2,4-pyrimidinedione] the same measures were 219 to 221 °C, above 100.00 µg/mL and 0.016 µg/mL (≈ 0.0398 µM).
Take `Cc1cc(C)cc(Sc2c(C(C)C)c(=O)[nH]c(=O)n2Cc2cc(F)cc(F)c2)c1` [Example 74, 1-(3,5-Difluorobenzyl)-5-isopropyl-6-(3,5-dimethylphenyl)thio-2,4-pyrimidinedione]: the melting point lay within 203 to 205 °C. Also, in the data set with mock-infected MT-4 cells, the CD50 was 10.50 µg/mL. Also, the EC50 in the data set on HIV (setting [1]) was found to be 0.013 µg/mL (≈ 0.0312 µM).
The matching figures for `CCc1c(Oc2cc(C)cc(C)c2)n(Cc2cc(F)cc(F)c2)c(=O)[nH]c1=O` [Example 75, 1-(3,5-Difluorobenzyl)-5-ethyl-6-(3,5-dimethylphenoxy)-2,4-pyrimidinedione]: 178 to 180 °C, 14.30 µg/mL and above 14.3 µg/mL.
The matching figures for `Cc1cc(C)cc(Oc2c(C(C)C)c(=O)[nH]c(=O)n2Cc2cc(F)cc(F)c2)c1` [Example 76, 1-(3,5-Difluorobenzyl)-5-isopropyl-6-(3,5-dimethylphenoxy)-2,4-pyrimidinedione]: 186 to 189 °C, 12.10 µg/mL and 0.022 µg/mL (≈ 0.0549 µM).
The matching figures for `CCc1c(C(=O)c2cc(C)cc(C)c2)n(Cc2cc(F)cc(F)c2)c(=O)[nH]c1=O` [Example 77, 1-(3,5-Difluorobenzyl)-5-ethyl-6-(3,5-dimethylbenzoyl)-2,4-pyrimidinedione]: 165 to 167 °C, 7.0 µg/mL and 0.003 µg/mL (≈ 0.00753 µM).
In turn, `Cc1cc(C)cc(C(=O)c2c(C(C)C)c(=O)[nH]c(=O)n2Cc2cc(F)cc(F)c2)c1` [Example 78, 1-(3,5-Difluorobenzyl)-5-isopropyl-6-(3,5-dimethylbenzoyl)-2,4-pyrimidinedione] had a melting point of 207 to 209 °C. The compound further came in with a CD50 with mock-infected MT-4 cells of 7.1 µg/mL. Besides, the EC50 with HIV (setting [1]) was found to be 0.0033 µg/mL (≈ 0.008 µM).
Consider `CCc1c(Sc2cc(C)cc(C)c2)n(Cc2cc(Cl)cc(Cl)c2)c(=O)[nH]c1=O` [Example 79, 1-(3,5-Dichlorobenzyl)-5-ethyl-6-(3,5-dimethylphenyl)thio-2,4-pyrimidinedione], for which the melting point fell in the range of 180 to 182 °C. The same compound showed a CD50 in the data set on mock-infected MT-4 cells of 24.77 µg/mL. Besides, the EC50 in the data set with HIV (setting [2]) is 0.052 µg/mL (≈ 0.119 µM).
The matching figures for `Cc1cc(C)cc(Sc2c(C(C)C)c(=O)[nH]c(=O)n2Cc2cc(Cl)cc(Cl)c2)c1` [Example 80, 1-(3,5-Dichlorobenzyl)-5-isopropyl-6-(3,5-dimethylphenyl)thio-2,4-pyrimidinedione]: 194 to 196 °C, 46.83 µg/mL and 0.049 µg/mL (≈ 0.109 µM).
For `CCc1c(Oc2cc(C)cc(C)c2)n(Cc2cc(Cl)cc(Cl)c2)c(=O)[nH]c1=O` [Example 81, 1-(3,5-Dichlorobenzyl)-5-ethyl-6-(3,5-dimethylphenoxy)-2,4-pyrimidinedione] the same measures were 194 to 196 °C, above 100.00 µg/mL and 1.16 µg/mL (≈ 2.77 µM).
In turn, `Cc1cc(C)cc(Oc2c(C(C)C)c(=O)[nH]c(=O)n2Cc2cc(Cl)cc(Cl)c2)c1` [Example 82, 1-(3,5-Dichlorobenzyl)-5-isopropyl-6-(3,5-dimethylphenoxy)-2,4-pyrimidinedione] gave a melting point of 234 to 236 °C. Also, the CD50 in the data set on mock-infected MT-4 cells turned out to be 36.15 µg/mL. Moreover, in the data set with HIV (setting [2]), the EC50 was found to be 0.173 µg/mL (≈ 0.399 µM).
The matching figures for `CCc1c(C(=O)c2cc(C)cc(C)c2)n(Cc2cc(Cl)cc(Cl)c2)c(=O)[nH]c1=O` [Example 83, 1-(3,5-Dichlorobenzyl)-5-ethyl-6-(3,5-dimethylbenzoyl)-2,4-pyrimidinedione]: 223 to 225 °C, 3.10 µg/mL and 0.021 µg/mL (≈ 0.0487 µM).
For `Cc1cc(C)cc(C(=O)c2c(C(C)C)c(=O)[nH]c(=O)n2Cc2cc(Cl)cc(Cl)c2)c1` [Example 84, 1-(3,5-Dichlorobenzyl)-5-isopropyl-6-(3,5-dimethylbenzoyl)-2,4-pyrimidinedione] the same measures were 220 to 222 °C, 7.88 µg/mL and 0.024 µg/mL (≈ 0.0539 µM).
The matching figures for `CCc1c(Sc2cc(C)cc(C)c2)n(Cc2cc(Br)cc(Br)c2)c(=O)[nH]c1=O` [Example 85, 1-(3,5-Dibromobenzyl)-5-ethyl-6-(3,5-dimethylphenyl)thio-2,4-pyrimidinedione]: 214 to 215 °C, 13.17 µg/mL and 0.13 µg/mL (≈ 0.248 µM).
Compound `Cc1cc(C)cc(Sc2c(C(C)C)c(=O)[nH]c(=O)n2Cc2cc(Br)cc(Br)c2)c1` [Example 86, 1-(3,5-Dibromobenzyl)-5-isopropyl-6-(3,5-dimethylphenyl)thio-2,4-pyrimidinedione] gave a melting point of 225 to 226 °C. For the same compound, the CD50 in the data set on mock-infected MT-4 cells worked out at 2.11 µg/mL. The EC50 with HIV (setting [2]) stood at 0.094 µg/mL (≈ 0.175 µM).
The matching figures for `CCc1c(Oc2cc(C)cc(C)c2)n(Cc2cc(Br)cc(Br)c2)c(=O)[nH]c1=O` [Example 87, 1-(3,5-Dibromobenzyl)-5-ethyl-6-(3,5-dimethylphenoxy)-2,4-pyrimidinedione]: 210 to 211 °C, above 100.00 µg/mL and 2.05 µg/mL (≈ 4.03 µM).
